Target: T1, HDAC6 enzyme (Homo sapiens, UniProt Q9UBN7)
T1 construct: transducing full length HDAC6 gene into Sf-9 insect cells; GST; purchased SignalChem; host or cells: Sf-9 insect cells
T1 sequence (Q9UBN7 1-1215): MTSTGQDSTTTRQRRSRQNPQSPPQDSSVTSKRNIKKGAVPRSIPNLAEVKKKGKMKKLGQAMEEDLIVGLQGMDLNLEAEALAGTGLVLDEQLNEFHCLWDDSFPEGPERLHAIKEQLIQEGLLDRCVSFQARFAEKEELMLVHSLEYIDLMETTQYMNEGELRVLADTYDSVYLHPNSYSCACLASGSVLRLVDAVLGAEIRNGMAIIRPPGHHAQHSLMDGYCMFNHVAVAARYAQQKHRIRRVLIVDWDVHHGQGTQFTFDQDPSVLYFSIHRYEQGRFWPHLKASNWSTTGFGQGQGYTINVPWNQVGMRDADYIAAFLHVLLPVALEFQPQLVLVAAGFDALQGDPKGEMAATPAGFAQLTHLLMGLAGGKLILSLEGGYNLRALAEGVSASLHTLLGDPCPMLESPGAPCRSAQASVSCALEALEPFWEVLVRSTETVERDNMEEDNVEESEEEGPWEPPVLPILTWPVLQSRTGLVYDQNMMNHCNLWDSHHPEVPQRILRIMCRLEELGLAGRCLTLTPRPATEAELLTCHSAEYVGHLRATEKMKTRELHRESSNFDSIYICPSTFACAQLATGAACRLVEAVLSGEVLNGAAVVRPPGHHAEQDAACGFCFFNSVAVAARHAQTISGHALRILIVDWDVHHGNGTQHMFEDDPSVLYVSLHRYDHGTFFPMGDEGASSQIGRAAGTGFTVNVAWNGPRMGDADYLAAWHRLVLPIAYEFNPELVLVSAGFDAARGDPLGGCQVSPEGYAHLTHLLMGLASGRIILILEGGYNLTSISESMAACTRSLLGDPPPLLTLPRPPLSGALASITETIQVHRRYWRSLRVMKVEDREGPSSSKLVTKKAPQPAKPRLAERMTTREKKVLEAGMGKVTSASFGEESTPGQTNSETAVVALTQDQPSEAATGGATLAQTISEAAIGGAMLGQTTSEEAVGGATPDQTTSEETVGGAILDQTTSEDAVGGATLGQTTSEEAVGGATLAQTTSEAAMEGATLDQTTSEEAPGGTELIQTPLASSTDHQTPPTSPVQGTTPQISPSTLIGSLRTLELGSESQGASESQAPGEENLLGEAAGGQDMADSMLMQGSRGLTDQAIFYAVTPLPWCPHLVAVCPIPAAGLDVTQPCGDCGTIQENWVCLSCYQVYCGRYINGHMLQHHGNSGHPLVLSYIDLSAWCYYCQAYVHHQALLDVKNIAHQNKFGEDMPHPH
Test: HDAC6 enzyme inhibitory activity (HDAC-Glo I/II Assay kit)
Type: biochemical
Settings: 10 μM; wells without enzyme = 100% inhibition; read-out: HDAC6 inhibitory rate (%) (10 μM)
Experimental: HDAC6 enzyme prepared by transducing full length HDAC6 gene into Sf-9 insect cells and purifying by GST affinity column were purchased from SignalChem. Using this enzyme, HDAC6 enzyme inhibitory activities of the compound of the present invention were evaluated. Enzymes were used after preserved at −70° C. HDAC6 enzyme inhibitory activity of the compound of the present invention was measured using HDAC-Glo™ I/II Assay kit (Promega) according to the following experimental method. The test compound diluted with assay buffer (24 mM Tris-HCl (pH 7.5), 1 mM MgCl2, 0.35 mM KCl, 135 mM NaCl, 0.6 mM Glutathione, 0.01% Tween-20) was added to a 384-well plate by each 2 μL. Then, HDAC6 enzyme solution diluted with assay buffer was added thereto by each 4 μL, and the plate was incubated at room temperature for 60 min. After incubated, HDAC substrate-Developer solution prepared according to Promega protocol attached to the assay kit was added to the 384-well plate by each 2 μL, and the enzyme reaction was started. After reacting at room temperature for 20 min, luminescence level was measured using plate reader Envision (PerkinElmer). The inhibitory activity of each compound of Example was calculated as a relative activity value when luminescence level in wells without enzyme is considered as 100% inhibition.

inhibition at 10 µM | Compound
101% | O=C(N[C@@H]1CCCC[C@H]1N1Cc2ccc(-c3nnc(C(F)F)o3)cc2C1=O)[C@H]1C[C@H]1F (mixture of isomers) [Example 111, (1RS,2RS)-N-((1R,2R)-2-(6-(5-(difluoromethyl)-1,3,4-oxadiazol-2-yl)-1-oxo-1,3-dihydro-2H-isoindol-2-yl)cyclohexyl)-2-fluorocyclopropanecarboxamide]
101% | O=C(N[C@@H]1CCCC[C@H]1N1Cc2ccc(-c3nnc(C(F)F)o3)cc2C1=O)[C@@H]1C[C@H]1F (racemic) [Example 69, (1SR,2RS)-N-((1R,2R)-2-(6-(5-(difluoromethyl)-1,3,4-oxadiazol-2--yl)-1-oxo-1,3-dihydro-2H-isoindol-2-yl)cyclohexyl)-2-fluorocyclopropanecarboxamide]
100% | COC(=O)N1CC[C@@H](c2ccc(F)cc2)[C@H](N2Cc3ccc(-c4nnc(C(F)F)o4)cc3C2=O)C1 (racemic) [Example 504, methyl (3SR,4SR)-3-(6-(5-(difluoro-methyl)-1,3,4-oxadiazol-2-yl)-1-oxo-1,3-dihydro-2H-isoindol-2-yl)-4-(4-fluoro-phenyl) piperidine-1-carboxylate]
99% | O=C1c2cc(-c3nnc(C(F)F)o3)ccc2CN1[C@@H]1CCCC[C@H]1n1cccn1 (racemic) [Example 514, 6-(5-(difluoromethyl)-1,3,4-oxadiazol-2-yl)-2-((1RS,2RS)-2-(1H-pyrazol-1-yl)cyclohexyl)isoindolin-1-one]
101% | O=C1c2cc(-c3nnc(C(F)F)o3)cnc2CN1[C@@H]1CCCC[C@H]1n1cccn1 (racemic) [Example 526, 3-(5-(difluoromethyl)-1,3,4-oxadiazol-2-yl)-6-((1RS,2RS)-2-(1H-pyrazol-1-yl)cyclohexyl)-6,7-dihydro-5H-pyrrolo[3,4-b]pyridin-5-one]
99% | O=C1c2cc(-c3nnc(C(F)F)o3)ccc2CN1[C@H]1CCCC[C@H]1n1cccn1 (racemic) [Example 527, 6-(5-(difluoromethyl)-1,3,4-oxadiazol-2-yl)-2-((1SR,2RS)-2-(1H-pyrazol-1-yl)cyclohexyl)isoindolin-1-one]
99% | O=C1c2cc(-c3nnc(C(F)F)o3)cnc2CN1[C@@H]1CCCC[C@H]1Oc1ccc(F)cc1 (racemic) [Example 535, 3-(5-(difluoromethyl)-1,3,4-oxadiazol-2-yl)-6-((1RS,2RS)-2-(4-fluorophenoxy)cyclohexyl)-6,7-dihydro-5H-pyrrolo[3,4-b]pyridin-5-one]
99% | O=C1c2cc(-c3nnc(C(F)F)o3)cnc2CN1[C@H]1CCCC[C@H]1n1cccn1 (racemic) [Example 541, 3-(5-(difluoromethyl)-1,3,4-oxadiazol-2-yl)-6-((1SR,2RS)-2-(1H-pyrazol-1-yl)cyclohexyl)-6,7-dihydro-5H-pyrrolo[3,4-b]pyridin-5-one]
100% | O=C(C(F)F)N1CC[C@@H](c2ccc(F)cc2)[C@H](N2Cc3ccc(-c4nnc(C(F)F)o4)cc3C2=O)C1 (racemic) [Example 546, 2-((3SR,4SR)-1-(difluoroacetyl)-4-(4-fluorophenyl)piperidin-3-yl)-6-(5-(difluoromethyl)-1,3,4-oxadiazol-2-yl)isoindolin-1-one]
100% | O=C1c2cc(-c3nnc(C(F)F)o3)ccc2CN1[C@@H]1CN(C(=O)C(F)(F)C(F)(F)F)CC[C@H]1c1ccc(F)cc1 (racemic) [Example 548, 6-(5-(difluoromethyl)-1,3,4-oxadiazol-2-yl)-2-((3SR,4SR)-4-(4-fluorophenyl)-1-(2,2,3,3,3-pentafluoropropanoyl)piperidin-3-yl)isoindolin-1-one]
100% | O=C1c2cc(-c3nnc(C(F)F)o3)ccc2CN1[C@@H]1CCCC[C@H]1c1ncco1 (racemic) [Example 549, 6-(5-(difluoromethyl)-1,3,4-oxadiazol-2-yl)-2-((1RS,2RS)-2-(1,3-oxazol-2-yl)cyclohexyl)isoindolin-1-one]
97% | N#C[C@@H]1CCCC[C@H]1N1Cc2ccc(-c3nnc(C(F)F)o3)cc2C1=O (racemic) [Example 556, (1RS,2RS)-2-(6-(5-(difluoromethyl)-1,3,4-oxadiazol-2-yl)-1-oxo-1,3-dihydro-2H-isoindol-2-yl)cyclohexanecarbonitrile]
99% | O=C1c2cc(-c3nnc(C(F)F)o3)ccc2CN1[C@@H]1CCCC[C@H]1c1noc(C2CC2)n1 (racemic) [Example 558, 2-((1RS,2RS)-2-(5-cyclopropyl-1,2,4-oxadiazol-3-yl)cyclohexyl)-6-(5-(difluoromethyl)-1,3,4-oxadiazol-2-yl)isoindolin-1-one]
100% | O=C1c2cc(-c3nnc(C(F)F)o3)ccc2CN1[C@@H]1CCCC[C@H]1Oc1cncc(F)c1 (racemic) [Example 559, 6-(5-(difluoromethyl)-1,3,4-oxadiazol-2-yl)-2-((1RS,2RS)-2-((5-fluoropyridin-3-yl)oxy)cyclohexyl)isoindolin-1-one]
100% | O=C1c2cc(-c3nnc(C(F)F)o3)ccc2CN1[C@@H]1CCCC[C@H]1c1nc(C2CC2)no1 (racemic) [Example 561, 2-((1RS,2RS)-2-(3-cyclopropyl-1,2,4-oxadiazol-5-yl)cyclohexyl)-6-(5-(difluoromethyl)-1,3,4-oxadiazol-2-yl)isoindolin-1-one]
100% | CC(C)(C)OC(=O)N1CCC[C@H](N2Cc3ccc(-c4nnc(C(F)F)o4)cc3C2=O)[C@H]1c1ccc(F)cc1 (racemic) [Example 574, tert-butyl (2RS,3SR)-3-(6-(5-(difluoromethyl)-1,3,4-oxadiazol-2-yl)-1-oxo-1,3-dihydro-2H-isoindol-2-yl)-2-(4-fluorophenyl)piperidine-1-carboxylate]
100% | O=C1c2cc(-c3nnc(C(F)F)o3)ccc2CN1[C@H]1CCCN[C@@H]1c1ccc(F)cc1 (racemic) [Example 575, 6-(5-(difluoromethyl)-1,3,4-oxadiazol-2-yl)-2-((2RS,3SR)-2-(4-fluorophenyl)piperidin-3-yl)isoindolin-1-one]
99% | CC(F)(F)C(=O)N1CCC[C@H](N2Cc3ccc(-c4nnc(C(F)F)o4)cc3C2=O)[C@H]1c1ccc(F)cc1 (racemic) [Example 576, 6-(5-(difluoromethyl)-1,3,4-oxadiazol-2-yl)-2-((2RS,3SR)-1-(2,2-difluoropropanoyl)-2-(4-fluorophenyl)piperidin-3-yl)isoindolin-1-one]
97% | O=C1c2cc(-c3nnc(C(F)F)o3)ccc2CN1[C@H]1CCCN(C(=O)C(F)(F)C(F)(F)F)[C@@H]1c1ccc(F)cc1 (racemic) [Example 577, 6-(5-(difluoromethyl)-1,3,4-oxadiazol-2-yl)-2-((2RS,3SR)-2-(4-fluorophenyl)-1-(2,2,3,3,3-pentafluoropropanoyl)piperidin-3-yl)isoindolin-1-one]
100% | COC(=O)N1CCC[C@H](N2Cc3ccc(-c4nnc(C(F)F)o4)cc3C2=O)[C@H]1c1ccc(F)cc1 (racemic) [Example 578, methyl (2RS,3SR)-3-(6-(5-(difluoromethyl)-1,3,4-oxadiazol-2-yl)-1-oxo-1,3-dihydro-2H-isoindol-2-yl)-2-(4-fluorophenyl)piperidine-1-carboxylate]
